Assay results published in patent US11807835B2, “Detergent compositions containing a stabilized enzyme by phosphonates” (ECOLAB USA INC., priority 2016, dated 2023).

What was measured:
lipase = assay: Lipase activity retention in detergent use solution (4000 ppm, 5 GPG water; p-nitrophenyl valerate, TRIS buffer pH 8.0); assay type: biochemical; settings: for Relative Lipase Enzyme Activity in a Use Solution: Table 6E, room temperature; for Relative Lipase Enzyme Activity in a Use Solution of the All Ash Detergent Composition: Table 6F, all ash formula, 120º F.; for Relative Lipase Enzyme Activity: base formula
Experimental: The enzyme […] collected up to 4 hours, after a use solution was generated from the detergent composition. During the tests, the samples at different time points were collected and immediately frozen in an acetone/dry ice bath and stored in −80° C. before the activity of the enzyme was evaluated. For the use of such an assay, t=0 min was the reference point for 100% enzyme activity.
(§1) Assays of enzyme activity in formulations (% retention) were conducted to simulate a presoak condition in a beaker using the chemistry, temperature, and pH conditions relevant to manual warewash or presoak applications. Enzyme activity is an indicator of the stability of the enzyme in the detergent, specifically in an aqueous use solution within a sump (which is under conditions of high pH, temperature and dilution).
Enzyme activity under presoak or manual warewash conditions was traced quantitatively using a standard protease assay. Samples were prepared under bench top conditions, whereby the use solution from a detergent composition or detergent was obtained and maintained at a presoak or manual warewash temperature in a stirring water bath. After the time course for assessing enzyme stability is initiated, aliquots were taken at various time points and flash-frozen. A time=0 sample was prepared for each series by dissolving the detergent formulation at room temperature, mixing thoroughly, and flash freezing. Samples were thawed and diluted as necessary in an assay buffer usually for use in the protease assay. A glycine buffer at pH 9.0 is used here. The assay monitored the direct reaction of the protease on a small, commercially available peptidyl substrate, with liberation of the product providing correlation to the active enzyme content. The product was detected using a plate reader with an appreciable dynamic range (upper absorbance limit of the instrument >3.5). Enzyme activity levels were assessed relative to a calibration curve with average values for replicate tests used to map protease stability under presoak or manual warewash use conditions. Enzyme retention at each time point was calculated as the % enzyme activity relative to the time=0 sample.
The analysis by lipase and amylase assay was conducted similarly, except with a different substrate and buffers. For lipase activity, the substrate is p-nitrophenyl valerate, and for amylase, the substrate is an ethylidene substrate (EPS). The buffer used in lipase assay is TRIS (Tris(hydroxymethyl)aminomethane) buffer at pH 8.0, and in amylase assay HEPES (4-(2-hydroxyethyl)-1-piperazineethanesulfonic acid) buffer at pH 8.0.

[1] = test system: enzyme (protease, amylase, lipase); assay: Overall effects of phosphonates on enzyme activity (Table 3); assay type: biochemical; settings: overall effect of the phosphonate on enzyme activity in the detergent use solution
Experimental: The enzyme activities in the detergents with different phosphonate levels were tested at 4000 ppm in 5 grains per gallon (GPG) water at 120° F. with various time points collected up to 4 hours, after a use solution was generated from the detergent composition. During the tests, the samples at different time points were collected and immediately frozen in an acetone/dry ice bath and stored in −80° C. before the activity of the enzyme was evaluated. For the use of such an assay, t=0 min was the reference point for 100% enzyme activity.
as §1
The relative enzyme activities in a use solution of the tested detergent compositions containing a different phosphonate at different concentrations over a period time are listed in Table 4A-Table 4E, Table 5A-Table 5E, and Table 6A-Table 6F.

[2] = phosphonate 0.3 wt-%, time 90 min
[3] = phosphonate 0.3 wt-%, time 120 min
[4] = phosphonate 0.3 wt-%, time 150 min
[5] = phosphonate 0.3 wt-%, time 180 min
[6] = phosphonate 0.3 wt-%, time 210 min
[7] = phosphonate 0.3 wt-%, time 240 min

## CC(O)(P(=O)(O)O)P(=O)(O)O [HEDP, 1-hydroxy ethylidene-1,1-diphosphonic acid]
lipase; [2]
  Relative Lipase Enzyme Activity in a Use Solution: 104.91%
  Relative Lipase Enzyme Activity in a Use Solution of the All Ash Detergent Composition: −1.68%
lipase; [3]
  Relative Lipase Enzyme Activity in a Use Solution: 100.99%
  Relative Lipase Enzyme Activity in a Use Solution of the All Ash Detergent Composition: −1.38%
lipase; [4]
  Relative Lipase Enzyme Activity in a Use Solution: 100.18%
  Relative Lipase Enzyme Activity in a Use Solution of the All Ash Detergent Composition: −1.94%
lipase; [5]
  Relative Lipase Enzyme Activity in a Use Solution: 100.45%
  Relative Lipase Enzyme Activity in a Use Solution of the All Ash Detergent Composition: −4.15%
lipase; [6]
  Relative Lipase Enzyme Activity in a Use Solution: 98.87%
  Relative Lipase Enzyme Activity in a Use Solution of the All Ash Detergent Composition: −4.41%
lipase; [7]
  Relative Lipase Enzyme Activity in a Use Solution: 99.95%
  Relative Lipase Enzyme Activity in a Use Solution of the All Ash Detergent Composition: −3.60%
lipase; phosphonate 0.3 wt-%, time 0 min
  Relative Lipase Enzyme Activity in a Use Solution of the All Ash Detergent Composition: 100.00%
lipase; phosphonate 0.3 wt-%, time 5 min
  Relative Lipase Enzyme Activity in a Use Solution of the All Ash Detergent Composition: 39.01%
lipase; phosphonate 0.3 wt-%, time 10 min
  Relative Lipase Enzyme Activity in a Use Solution of the All Ash Detergent Composition: 21.35%
lipase; phosphonate 0.3 wt-%, time 20 min
  Relative Lipase Enzyme Activity in a Use Solution of the All Ash Detergent Composition: 7.45%
lipase; phosphonate 0.3 wt-%, time 40 min
  Relative Lipase Enzyme Activity in a Use Solution of the All Ash Detergent Composition: 0.88%
lipase; phosphonate 0.3 wt-%, time 60 min
  Relative Lipase Enzyme Activity in a Use Solution of the All Ash Detergent Composition: −0.91%
lipase; phosphonate 0.3 wt-%, use solution at 120° F., time 0 min
  Relative Lipase Enzyme Activity: 100.00%
lipase; phosphonate 0.3 wt-%, use solution at 120° F., time 5 min
  Relative Lipase Enzyme Activity: 47.15%
lipase; phosphonate 0.3 wt-%, use solution at 120° F., time 10 min
  Relative Lipase Enzyme Activity: 44.35%
lipase; phosphonate 0.3 wt-%, use solution at 120° F., time 20 min
  Relative Lipase Enzyme Activity: 34.94%
lipase; phosphonate 0.3 wt-%, use solution at 120° F., time 40 min
  Relative Lipase Enzyme Activity: 23.40%
lipase; phosphonate 0.3 wt-%, use solution at 120° F., time 60 min
  Relative Lipase Enzyme Activity: 17.75%
lipase; phosphonate 0.3 wt-%, use solution at 120° F., time 90 min
  Relative Lipase Enzyme Activity: 11.06%
lipase; phosphonate 0.3 wt-%, use solution at 120° F., time 120 min
  Relative Lipase Enzyme Activity: 6.92%
lipase; phosphonate 0.3 wt-%, use solution at 120° F., time 150 min
  Relative Lipase Enzyme Activity: 5.38%
lipase; phosphonate 0.3 wt-%, use solution at 120° F., time 180 min
  Relative Lipase Enzyme Activity: 2.90%
lipase; phosphonate 0.3 wt-%, use solution at 120° F., time 210 min
  Relative Lipase Enzyme Activity: 2.62%
lipase; phosphonate 0.3 wt-%, use solution at 120° F., time 240 min
  Relative Lipase Enzyme Activity: 2.32%
lipase; phosphonate 0.6 wt-%, use solution at 120º F., time 0 min
  Relative Lipase Enzyme Activity: 100.00%
lipase; phosphonate 0.6 wt-%, use solution at 120º F., time 5 min
  Relative Lipase Enzyme Activity: 62.99%
lipase; phosphonate 0.6 wt-%, use solution at 120º F., time 10 min
  Relative Lipase Enzyme Activity: 59.92%
lipase; phosphonate 0.6 wt-%, use solution at 120º F., time 20 min
  Relative Lipase Enzyme Activity: 48.34%
lipase; phosphonate 0.6 wt-%, use solution at 120º F., time 40 min
  Relative Lipase Enzyme Activity: 33.30%
lipase; phosphonate 0.6 wt-%, use solution at 120º F., time 60 min
  Relative Lipase Enzyme Activity: 23.22%
lipase; phosphonate 0.6 wt-%, use solution at 120º F., time 90 min
  Relative Lipase Enzyme Activity: 17.91%
lipase; phosphonate 0.6 wt-%, use solution at 120º F., time 120 min
  Relative Lipase Enzyme Activity: 14.72%
lipase; phosphonate 0.6 wt-%, use solution at 120º F., time 150 min
  Relative Lipase Enzyme Activity: 12.63%
lipase; phosphonate 0.6 wt-%, use solution at 120º F., time 180 min
  Relative Lipase Enzyme Activity: 7.01%
lipase; phosphonate 0.6 wt-%, use solution at 120º F., time 210 min
  Relative Lipase Enzyme Activity: 8.08%
lipase; phosphonate 0.6 wt-%, use solution at 120º F., time 240 min
  Relative Lipase Enzyme Activity: 5.20%
lipase; phosphonate at 0.1% elemental phosphorus, at 120º F. or at room temperature (as titled), time 0 min
  Relative Lipase Enzyme Activity: 100.00%
lipase; phosphonate at 0.1% elemental phosphorus, at 120º F. or at room temperature (as titled), time 5 min
  Relative Lipase Enzyme Activity: 79.12%
lipase; phosphonate at 0.1% elemental phosphorus, at 120º F. or at room temperature (as titled), time 10 min
  Relative Lipase Enzyme Activity: 67.70%
lipase; phosphonate at 0.1% elemental phosphorus, at 120º F. or at room temperature (as titled), time 20 min
  Relative Lipase Enzyme Activity: 51.16%
lipase; phosphonate at 0.1% elemental phosphorus, at 120º F. or at room temperature (as titled), time 40 min
  Relative Lipase Enzyme Activity: 25.69%
lipase; phosphonate at 0.1% elemental phosphorus, at 120º F. or at room temperature (as titled), time 60 min
  Relative Lipase Enzyme Activity: 19.99%
lipase; phosphonate at 0.1% elemental phosphorus, at 120º F. or at room temperature (as titled), time 90 min
  Relative Lipase Enzyme Activity: 16.10%
lipase; phosphonate at 0.1% elemental phosphorus, at 120º F. or at room temperature (as titled), time 120 min
  Relative Lipase Enzyme Activity: 13.04%
lipase; phosphonate at 0.1% elemental phosphorus, at 120º F. or at room temperature (as titled), time 150 min
  Relative Lipase Enzyme Activity: 11.14%
lipase; phosphonate at 0.1% elemental phosphorus, at 120º F. or at room temperature (as titled), time 180 min
  Relative Lipase Enzyme Activity: 9.12%
lipase; phosphonate at 0.1% elemental phosphorus, at 120º F. or at room temperature (as titled), time 210 min
  Relative Lipase Enzyme Activity: 7.99%
lipase; phosphonate at 0.1% elemental phosphorus, at 120º F. or at room temperature (as titled), time 240 min
  Relative Lipase Enzyme Activity: 7.70%
[1]
  Stability (effects on enzyme activity): No
